Test results taken from ChEMBL document CHEMBL1121458, “Benzenesulfenamides as antihypertensive agents. Substituted piperidine and 1-arylpiperazine derivatives” (1980).

Key:
Type in all cases: functional
[1] = tested on: Rattus norvegicus; assay: Antihypertensive activity was measured for systolic pressure using spontaneous hypertensive rats (SHR) at 50 mg/kg after oral administration
[2] = tested on: Rattus norvegicus; assay: Antihypertensive activity was measured for systolic pressure using spontaneous hypertensive rats (SHR) at 10 mg/kg after oral administration
[3] = tested on: Rattus norvegicus; assay: Antihypertensive activity was measured for systolic pressure using spontaneous hypertensive rats (SHR) at 25 mg/kg after oral administration
[4] = tested on: Rattus norvegicus; assay: Antihypertensive activity was measured for systolic pressure using spontaneous hypertensive rats (SHR) at 50 mg/kg

Row | Structure (SMILES) | Change in systolic pressure [1] | Change in systolic pressure [2] | Change in systolic pressure [3] | Change in systolic pressure [4]
1 | COc1cccc(N2CCN(Sc3ccccc3)CC2)c1 | 35 mmHg | – | – | –
2 | Cc1ccc(C(=O)C2CCN(Sc3ccccc3)CC2)cc1 | 7 mmHg | – | – | –
3 | Cc1cccc(N2CCN(Sc3ccccc3)CC2)c1 | – | 16 mmHg | – | –
4 | c1ccc(CN2CCN(Sc3ccccc3)CC2)cc1 | 17 mmHg | – | 23 mmHg | –
5 | Clc1ccccc1N1CCN(Sc2ccccc2)CC1 | 28 mmHg | – | – | –
6 | COc1ccccc1N1CCN(Sc2ccccc2)CC1 | 71 mmHg | – | 27 mmHg | –
7 | c1ccc(SN2CCN(c3ccccn3)CC2)cc1 | 40 mmHg | – | 65 mmHg | –
8 | c1ccc(SN2CCC(c3ccccc3)CC2)cc1 | -9 mmHg | – | – | –
9 | N=C(N)NCCN1CCCCCCC1 [GUANETHIDINE] | – | 34 mmHg | – | –
10 | O=S(=O)(c1ccccc1)N1CCN(c2ccccn2)CC1 | 5 mmHg | – | – | –
11 | O=C(c1ccccc1)C1CCN(Sc2ccccc2)CC1 | – | – | -14 mmHg | –
12 | Brc1ccc(OC2CCN(Sc3ccccc3)CC2)cc1 | -15 mmHg | – | – | –
13 | c1ccc(COC2(c3ccccc3)CCN(Sc3ccccc3)CC2)cc1 | – | – | – | 2 mmHg
14 | c1ccc(SN2CCN(c3ccccc3)CC2)cc1 | – | 16.5 mmHg | 90 mmHg | –
15 | O=S(=O)(c1ccccc1)N1CCN(c2ccccc2)CC1 | 26 mmHg | – | 33 mmHg | –
16 | Clc1ccc(N2CCN(Sc3ccccc3)CC2)cc1 | 44 mmHg | – | 23.5 mmHg | –
17 | Cc1ccccc1N1CCN(Sc2ccccc2)CC1 | 8 mmHg | – | – | –
18 | COc1ccc(N2CCN(Sc3ccccc3)CC2)cc1 | – | – | 7 mmHg | –
19 | [O-][S+](c1ccccc1)N1CCN(c2ccccn2)CC1 (stereo not drawn) | 80 mmHg | 36 mmHg | 59 mmHg | –
20 | c1ccc(SN2CCC3(CC2)OC(c2ccccc2)c2ccccc23)cc1 (stereo not drawn) | -66 mmHg | – | -44 mmHg | –
21 | [O-][S+](c1ccccc1)N1CCN(c2ccccc2)CC1 (stereo not drawn) | 83 mmHg | 22 mmHg | 42 mmHg | –
22 | FC(F)(F)c1cccc(N2CCN(Sc3ccccc3)CC2)c1 | 6 mmHg | – | – | –
